One test concerns the target T1, C3 convertase, classical (Homo sapiens, UniProt P06681).
T1 sequence (P06681 244-752 limits assumed): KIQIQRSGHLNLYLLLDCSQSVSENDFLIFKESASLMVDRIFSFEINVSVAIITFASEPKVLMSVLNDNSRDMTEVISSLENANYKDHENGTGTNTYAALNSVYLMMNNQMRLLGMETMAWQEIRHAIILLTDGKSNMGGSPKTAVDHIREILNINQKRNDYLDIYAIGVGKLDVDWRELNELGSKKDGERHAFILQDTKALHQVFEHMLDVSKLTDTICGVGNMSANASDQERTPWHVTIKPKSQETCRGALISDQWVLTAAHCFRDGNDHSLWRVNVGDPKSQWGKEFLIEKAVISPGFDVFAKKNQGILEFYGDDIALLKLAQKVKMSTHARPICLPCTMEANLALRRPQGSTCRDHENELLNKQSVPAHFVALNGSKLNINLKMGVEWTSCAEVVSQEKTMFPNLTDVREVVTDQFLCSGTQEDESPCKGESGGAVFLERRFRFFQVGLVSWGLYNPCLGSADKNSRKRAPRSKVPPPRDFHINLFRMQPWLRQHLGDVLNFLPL
To be noted: in vitro; cited from earlier work.

The next test deals with T2, C2, classical (Homo sapiens, UniProt P06681).
T2 sequence (P06681 21-752): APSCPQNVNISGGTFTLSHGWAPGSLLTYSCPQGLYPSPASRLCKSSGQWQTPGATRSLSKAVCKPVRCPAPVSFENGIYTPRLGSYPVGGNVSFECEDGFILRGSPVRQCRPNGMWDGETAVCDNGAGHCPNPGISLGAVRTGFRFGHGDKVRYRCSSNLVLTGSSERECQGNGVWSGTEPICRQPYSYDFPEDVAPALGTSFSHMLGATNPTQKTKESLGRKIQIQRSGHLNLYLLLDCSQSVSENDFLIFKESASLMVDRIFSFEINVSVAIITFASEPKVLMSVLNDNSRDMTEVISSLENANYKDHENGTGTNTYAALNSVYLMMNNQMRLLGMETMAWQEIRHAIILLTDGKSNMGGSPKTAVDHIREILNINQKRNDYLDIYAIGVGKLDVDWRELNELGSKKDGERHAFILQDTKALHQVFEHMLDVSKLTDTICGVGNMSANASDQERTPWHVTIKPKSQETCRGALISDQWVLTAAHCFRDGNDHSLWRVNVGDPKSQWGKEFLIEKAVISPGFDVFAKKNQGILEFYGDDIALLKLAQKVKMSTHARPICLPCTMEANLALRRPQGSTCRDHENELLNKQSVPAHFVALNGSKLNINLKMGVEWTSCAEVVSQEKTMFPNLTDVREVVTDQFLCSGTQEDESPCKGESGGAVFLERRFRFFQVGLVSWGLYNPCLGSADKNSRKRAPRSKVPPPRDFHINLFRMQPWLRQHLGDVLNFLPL
As to conditions: in vitro; cited from earlier work.

The next test has as its system patent ductus arteriosus. The experiment in a line: NICU course of the neonate. Type of test: in vivo, human. The method, then: The neonate was intubated at 10 min of life for respiratory support and admitted to the NICU. They were extubated the following morning after one dose of surfactant; blood cultures were negative; and head ultrasound was normal. NICU course was notable for a patent ductus arteriosus (responsive to Indomethacin) and inguinal hernia repair (day 67), after which they were discharged home in good condition. There were trace levels of Eculizumab in cord blood samples taken at delivery, thought secondary to contamination with maternal blood.

In the next test the target is factor D (Homo sapiens, UniProt P00746). As to conditions: site of action factor D; cited from earlier work.
Sequence of factor D (P00746 26-253): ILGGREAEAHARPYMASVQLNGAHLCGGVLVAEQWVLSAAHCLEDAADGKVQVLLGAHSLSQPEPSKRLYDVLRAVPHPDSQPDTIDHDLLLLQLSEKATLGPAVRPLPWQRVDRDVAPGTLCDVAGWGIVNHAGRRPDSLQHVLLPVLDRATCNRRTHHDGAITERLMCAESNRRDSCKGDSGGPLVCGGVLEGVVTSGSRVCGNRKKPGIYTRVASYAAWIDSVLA
In test [1] the test system is severe preeclampsia/HELLP syndrome. The experiment in a line: Case report: Eculizumab treatment of a pregnant patient with severe preeclampsia/HELLP syndrome. To be noted: initial course during Eculizumab treatment. Type of test: in vivo, human.

As usually defined, the IC50 is the concentration that gives 50% inhibition. For the molecule `O=C(/C=C/c1ccc(O)c(O)c1)O[C@H](Cc1ccc(O)c(O)c1)C(=O)O` [Rosmarinic acid], the IC50 at C3 convertase, classical is 5 to 10 µM. Regarding `CC1(C)[C@@H](O[C@H]2O[C@H](C(=O)O)[C@@H](O)[C@H](O)[C@H]2O[C@@H]2O[C@H](C(=O)O)[C@@H](O)[C@H](O)[C@H]2O)CC[C@]2(C)[C@H]3C(=O)C=C4[C@@H]5C[C@@](C)(C(=O)O)CC[C@]5(C)CC[C@@]4(C)[C@]3(C)CC[C@@H]12` [Glycyrrhizin], at C2, classical, the IC50 is 35 µM. As to `COc1ccc2c(c1)c(CC(=O)O)c(C)n2C(=O)c1ccc(Cl)cc1` [Indomethacin], the “patent ductus arteriosus, response” value with patent ductus arteriosus is reported as “responsive”. As for `N=C(N)c1cc2ccc(OC(=O)c3cccs3)cc2s1` [BCX-1470], at factor D, the IC50 is 0.096 µM.

Consider `CC(CCc1ccccc1)NCC(O)c1ccc(O)c(C(N)=O)c1` (stereo not drawn) [Labetalol], for which, in test [1], the “escalating blood pressures, response” value is given as “responded”. Consider `NS(=O)(=O)c1cc(C(=O)O)c(NCc2ccco2)cc1Cl` [Lasix], for which, in test [1], the “pulmonary edema, response” value is listed as “responded”.

Source of the values: US20150330989A1, “METHOD AND SYSTEM FOR DIAGNOSING AND TREATING PREECLAMPSIA” (THE BRIGHAM AND WOMEN'S HOSPITAL, INC., priority 2012, published 2015).
